From US20180265915A1, “TRANSCRIPTION FACTOR DECOYS” (priority 2008, published 2018) come the findings set out here.

Series [1] deals with E. coli. Put plainly: FabB decoy growth assay with cerulenin in 96-well plate. To be noted: Rich media supplemented with 1 μg/ml cerulenin. It is filed as cell-based, Escherichia coli. The protocol: The decoy was prepared as described in Example 1.1 and used at various concentrations to transfect a well of a 96-well plate containing 200 μl of Rich media (10 g Tryptone, 5 g NaCl, 1 g Yeast extract per litre and supplemented with 0.2% glucose and 0.4% acetate, final concentrations) supplemented with 1 μg/ml cerulenin (Sigma). The plates were incubated at 37° C. with shaking and absorbance readings (at 595 nM) were taken using a plate reader. All data points were performed in triplicate.

The test system of series [2] is E. coli. Briefly: FabB TFD growth assay with cerulenin in LB, polymixin co-transfectant. The class given is cell-based, Escherichia coli. The protocol: For example, a FabB decoy which targets the regulation of genes essential for fatty acid synthesis may be tested against suitable strain, e.g. E. coli grown in e.g. Luria-Bertani LB media (1% [w/v] Bacto-tryptone, 0.5% [w/v] Yeast extract, 1% [w/v] NaCl) in the presence of an antibiotic which acts on the process of fatty acid synthesis, e.g. Cerulenin.
The effect of TFDs on the growth of E. coli bacterial cultures was measured as described in Example 4.1 with a few modifications: the media used was LB; the co-transfectant used was 40 nM polymixin, rather than gramicidin; the media was also supplemented with 10 μg/ml Cerulenin (CER). CER is an antibiotic that acts on fatty acid synthesis.

In series [3] the test system is S. aureus. Briefly: Growth of S. aureus transfected by electroporation under conditions of stress. It is filed as cell-based, Staphylococcus aureus. The note with it: BHI or LB media with 30 mM KOH, vs mock-electroporation or unrelated sequence. On the procedure:
For example, stress response can be induced in a suitable strain e.g. S. aureus by growing in, e.g. LB media under conditions of stress, e.g. alkali conditions. For example LB media containing KOH, e.g. at 30 mM may be used. Untreated bacteria grow well in this media, due to the induction of the stress response by the alkali conditions, whereas those treated with the SA_sigB decoy, targeting the regulation of sigB which is a major part of the regulatory response to stress, grow poorly.
Decoy polynucleotides were transfected into S. aureus by electroporation. Bacterial cells were prepared by standard methods. Briefy, cells were grown to early exponential phase in LB media at 37° C. as defined as reaching an Absorbance of 0.3 at […]. The cells were chilled to 4° C. and harvested by low speed centrifugation and washed three times in a similar volume of sterile, ice-cold 10% (v/v) glycerol. Finally the cells were resuspended in a tenth of their original volume in 10% glycerol. […] 200 μl of cells were aliquoted into wells of a 96 well plate that was incubated at 37° C. with moderate shaking, growth was monitored by measuring absorbance.

In series [4] the test system is S. aureus. Briefly: Growth studies in 96-well plates (DOTAP/Gramicidin transfection). It is filed as cell-based, Staphylococcus aureus. The note with it: 10 nM TFD, DOTAP, 60 nM Gramicidin. The protocol: Cholesterol/Cy5-labeled decoy polynucleotides were prepared as in section 5.1. Typically 1 Lg of TFD was then complexed with 0.3 μl of the liposomal transfection reagent DOTAP (Roche) and incubated at room temperature for 10 min. The assays to determine their effect on growth of bacterial cells were performed using 96 well plates, each well containing 200 μl of broth consisting of BHI media (from Becton Dickinson), which is not iron-limited, supplemented with 60 nM Gramicidin (from Sigma Corporation. Cat# G5002) or iron-depleted media (NRPMI) similarly supplemented with Gramicidin. The method for iron-depletion is described in full elsewhere (Science (2004) 305:1626-1628). 1 μl of various concentrations of a Cholesterol/Cy5-labeled decoy complexed with TFD were added to each well and their effect on bacterial growth of S. aureus monitored by measuring absorbance of the broth at intervals during incubation. The plates were incubated at 37° C. with shaking and absorbance readings (at 450 nM) were taken using a plate reader. Several decoys were tested: Sig, fhu and SsaA.

In the next series the test system is M. smegmatis. Put plainly: WhiB7 decoy antibiotic sensitisation, growth in shake flasks. The class given is cell-based, Mycobacterium smegmatis. The note with it: 100 nM TFD; sub-inhibitory isoniazid (IZ) or rifampicin (RF); 9H11 + 10% ODAC, 37° C. The protocol: A decoy polynucleotide containing the WhiB7 decoy sequence was prepared as described in Example 1.1 and various concentrations were used to transfect M. smegmatis grown in 20 ml of broth (in 200 ml shake flasks containing a wire baffle). The media used was 9H11 (Becton Dickinson) supplemented with 10% ODAC (Becton Dickinson) and sub-inhibitory concentrations of the antibiotics isoniazid (IZ) or rifampicin (RF). The flasks were incubated at 37° C. with shaking and at various intervals samples were withdrawn and their absorbance measured (to monitor cell growth). Flasks were either treated with 100 nM of the WhiB7 TFD (+) or treated with the negative control TFD (−).

“Also recorded” adds a separate entry of the source.

Consider “FabB TFD: decoy containing the binding site for the FadR regulator, SEQ ID NO: 6 (DNA TTTATTCCGAACTGATCGGACTTGTTCAGCGTACACGTGTTAGCTATCCTGCGTGCTTCA; transcription factor decoy, method of preparation not given here for this one, further chemistry not given here)”, for which the “growth of E. coli in broth (absorbance at 595 nM)” value with E. coli [1] was “caused the cells to hardly grow at all”. In addition, in the series on E. coli [2] (10 nM TFD, LB, 40 nM polymixin, 10 μg/ml Cerulenin), the “sensitivity of E. coli to the action of cerulenin” value is on record as “sensitises the bacteria to antibiotics (cerulenin); also recorded: rendered the bacteria sensitive to the action of cerulenin”. The “effect on cells at 20 ug/ml cerulenin” value in the series with E. coli [2] (FabB TFD plus cerulenin) is listed as “the cells are being killed by the synergenistic action”. For the same substance, the “growth of E. coli treated with the decoy versus untreated” value in the series on E. coli [2] (LB media, Cerulenin 10 μg/ml) was “grow markedly more slowly and to lower final density”.

Consider “SsaA TFD: contains the binding site for the two-component regulator WalR, SEQ ID NO: 8 (DNA ATTACAAATTTGTAACAGACTTATTTTA; transcription factor decoy, made by PCR or oligonucleotide ligation, further chemistry not given here; listed as Staphylococcus aureus)”, for which, in the series on S. aureus [3], the “growth of S. aureus under conditions of stress” value is given as “capable of slowing the growth”. Further, the “effect on bacterial growth in BHI medium (non-iron limiting)” value with S. aureus [4] was “measurable delay in bacterial growth”. Moreover, the “effect on bacterial growth in iron-limited media” value in the series with S. aureus [4] (NRPMI) is reported as “no effect on bacterial growth”.

Consider “WhiB7 TFD: decoy with WhiB7 binding site, SEQ ID NO: 5, prepared by PCR with cholesterol/Cy5 primers (DNA TGGCCACGGATCCGGGTGACTGCGGGTCCGTGGCCT; PCR-made decoy including vector flanks, 5' cholesterol and Cy5 primer ends, further chemistry not given here)”, for which the “sensitivity of cells to the antibiotics tested (growth by absorbance)” value with M. smegmatis is “rendered sensitive to both the antibiotics tested”.
